One compound from patent publication US8697747B2, “Enhancing coagulation or reducing fibrinolysis” (THe UAB Research Foundation, priority 2009, dated 2014) can be followed below.

One assay has as its system TAFI deficient plasma. The experiment in a line: CLSM thrombelastography with tPA, TAFI deficient plasma. In kind it is biochemical, human. The following applies: 100 μM CORM-2, tPA 100 IU/mL, median, n=8. How it is done:
Pooled normal plasma (George King Bio-Medical, Overland Park, Kans.) anticoagulated with sodium citrate was utilized for experimentation. […] Factor XIII (FXIII) deficient plasma anticoagulated with sodium citrate was also obtained from the same vendor.
Plasma Sample Composition. The final volume for all subsequently described plasma sample mixtures was 359.4 μL. Sample composition consisted of 316 μL of plasma; 10 μL of tissue factor (0.1% final concentration in 0.9% NaCl; Diagnostica Stago, Asnieres, France), 3.6 μL of dimethyl sulfoxide (DMSO) or DMSO with CORM-2 (Sigma-Aldrich, St. Louis, Mo.) or DMSO with inactivated CORM-2 (iCORM-2), 10 μL of tissue-type plasminogen activator (tPA, 580 U/μg, Genentech, Inc., San Francisco, Calif.) diluted with 10 mM potassium phosphate buffer (pH 7.4) for a final activity of 100 IU/mL, and 20 μL of 200 mM CaCl2. […] This concentration of CORM-2 was chosen because the concentration of CO released would be expected to be in the mid to lower ranges used in previously reported ex vivo, in vitro, and cell-based experiments (Motterlini et al. 2002; Megias et al. 2007; Chlopicki et al. 2006; Dong et al. 2008). […] (Motterlini et al. 2005). While CORM-2 decays slowly in DMSO, DMSO was added to the dry compound just prior to placement into the plasma mixture. The specific series of experiments are subsequently presented.
Assessment of the Effects of CORM-2 on CLSM Parameters in FXIII, PAI-1, TAFI and α2-antiplasmin Deficient Plasmas. These experiments were performed to elucidate the roles played by antifibrinolytic enzymes during CORM-2 mediated modulation of fibrinolysis. Samples of the various deficient plasmas were exposed to 0 or 100 μM of CORM-2 (n=8 per condition). Samples underwent CLSM analyses as subsequently described.
Clot Lifespan Model Analyses. As described in Example 1, plasma sample mixtures were placed in a disposable cup in a computer-controlled THROMBELASTOGRAPH® hemostasis system (Model 5000, Haemoscope Corp., Niles, Ill.), with addition of CaCl2 as the last step to initiate clotting. Data were collected until clot lysis time occurred. […] As this model involves complete fibrinolysis, TTG is equivalent to ACL, so ACL was not presented as it provides no additional information.
Statistical Analyses. Data are presented as median (1st, 3rd quartiles). […] Nonlinear and linear analyses and curve fitting of the various CORM-2 concentrations effects on CLSM variables were performed with commercially available software (SigmaPlot 11.0, Systat Software, Inc., San Jose, Calif.). Analyses of the effects of CORM-2 and iCORM-2 on CLSM variables in normal plasma were conducted with Kruskal-Wallis one way analysis of variance on ranks, whereas Mann-Whitney rank sum tests were used to assess the effects of CORM-2 on CLSM variables in the various immunodepleted/congenitally deficient plasma types (SigmaStat 3.1, Systat Software, Inc., San Jose, Calif.). Graphical representation of the data was generated with commercially available software (SigmaPlot 11.0, Systat Software, Inc., San Jose, Calif.; CorelDRAW 12.0, Corel Corporation, Ottawa, Ontario, Canada; Origin 7.5, OriginLab Corp., Northampton, Mass.). A P value of <0.05 was considered significant.

Assay [1] has as its system factor VIII deficient plasma. The experiment in a line: Thrombelastography, factor VIII deficient plasma. The assay is classed as biochemical, human. The following applies: FVIII deficient plasma, 11 individuals, mean ± SD. How it is done:
Plasma deficient (<1% normal activity) in factor VIII (FVIII; 11 individuals), factor IX (FIX; 5 individuals), or factor VII (FVII; 4 individuals) was obtained from anonymous donors (George King Bio-Medical, Overland Park, Kans.) and was anticoagulated with sodium citrate. The final volume for all subsequently described plasma sample mixtures was […]. Sample composition consisted of […] of plasma, […] of tissue factor (0.1% final concentration in 0.9% NaCl; Diagnostica Stago, Asnieres, France), 3.6 mL of dimethyl sulfoxide (DMSO) or DMSO with CORM-2 ([…]; Sigma-Aldrich, St. Louis, Mo.), and 20 mL of […] CaCl2. […] (Motterlini et al. 2005). While CORM-2 decays slowly in DMSO, DMSO was added to the dry compound just prior to placement into the plasma mixture.
Plasma sample mixtures were placed in a disposable cup in a computer-controlled THROMBELASTOGRAPH® hemostasis system (Model 5000; Haemoscope Corp., Niles, Ill.), with addition of CaCl2 as the last step to initiate clotting. Data were collected until clot strength stabilized (maximum amplitude).
Statistical analyses. […] A paired student's t-test was used to analyze the effects of CORM-2 exposure in FVIII deficient individuals. The results of the FIX and FVII deficient groups were presented but not statistically analyzed secondary to the small number of individuals in each cohort. […] Statistical analyses and graphical representation of the data were generated with commercially available software (SigmaPlot 11.0; Systat Software Inc., San Jose, Calif.; CorelDRAW 12.0; Corel Corp., Ottawa, Ontario, Canada). A P value of less than 0.05 was considered significant.

`[C-]#[O+].[C-]#[O+].[C-]#[O+].[C-]#[O+].[C-]#[O+].[C-]#[O+].[Cl][Ru][Cl].[Cl][Ru][Cl]` [CORM-2, tricarbonyldichlororuthenium (II) dimer]: in the assay with TAFI deficient plasma, the “CGT (clot growth time)” value came out at 410 s, the “CLS (clot lifespan)” value is 370 s, the “CLT (clot lysis time)” value worked out at 932 s and the “MRL (maximum rate of lysis)” value is −1.4 -dynes/cm^2/sec. Also, in the assay on TAFI deficient plasma, the “MRTG (maximum rate of thrombus generation)” value worked out at 6.1 dynes/cm^2/sec, the “TMRL (time to maximum rate of lysis)” value is 612 s, the “TMRTG (time to maximum rate of thrombus generation)” value stood at 175 s and the “TTG (total thrombus generation)” value came out at 142 dynes/cm^2. For the same compound, in assay [1] (100 mmol CORM-2), the “TMRTG (time to maximum rate of thrombus generation)” value was 4.0 ± 2.3 min and the “TTG (total thrombus generation)” value is 232±56 dynes/cm^2. Also, the “MRTG (maximum rate of thrombus generation)” value in assay [1] (CORM-2) was found to be 5.0±2.7 dynes/cm^2/sec.
